Laboratory results taken from ChEMBL document CHEMBL4715932, “Positional Isomers of Biphenyl Antimicrobial Peptidomimetic Amphiphiles” (ACS Med Chem Lett, 2021).
≈ marks a conversion by molar mass, not a printed value.

What was measured:
Staphylococcus aureus [1] = assay: Antimicrobial activity against methicillin resistant Staphylococcus aureus ATCC 43300 assessed as growth inhibition incubated for 18 hrs; format: functional
[2] = Cytotoxicity against human HEK-293 cells incubated for 23 hrs by CO-ADD method; format: cell-based, HEK293
Candida albicans = assay: Antifungal activity against Candida albicans ATCC 90028 assessed as growth inhibition incubated for 36 hrs; format: functional; conditions: 28A ATCC 90028
Cryptococcus neoformans = assay: Antifungal activity against Cryptococcus neoformans H99 ATCC 208821 assessed as growth inhibition incubated for 36 hrs; format: functional; conditions: var. grubii H99 ATCC 208821
Staphylococcus aureus [3] = assay: Antibacterial activity against vancomycin intermediate susceptibility Staphylococcus aureus Mu50 assessed as inhibition of growth visually by CLSI method; format: functional
Enterococcus faecalis [4] = assay: Antibacterial activity against Enterococcus faecalis ATCC 29212 assessed as inhibition of growth visually by CLSI method; format: functional
Enterococcus faecalis [5] = assay: Antibacterial activity against vancomycin-resistant Enterococcus faecalis ATCC 51299 assessed as inhibition of growth visually by CLSI method; format: functional
Escherichia coli [6] = assay: Antibacterial activity against Escherichia coli ATCC 10418 assessed as inhibition of growth visually by CLSI method; format: functional
Clostridioides difficile [7] = assay: Antibacterial activity against Clostridioides difficile ATCC 700057 assessed as inhibition of growth visually preincubated for 2 to 4 hrs measured after 48 hrs by CLSI method; format: functional; conditions: time hrs <=52
Clostridioides difficile [8] = assay: Antibacterial activity against Clostridioides difficile NSW 132 (RT027) assessed as inhibition of growth visually preincubated for 2 to 4 hrs measured after 48 hrs by CLSI method; format: functional; conditions: time hrs <=52
Staphylococcus aureus [9] = assay: Antibacterial activity against Staphylococcus aureus ATCC 29213 assessed as inhibition of growth visually by CLSI method; format: functional
Staphylococcus aureus [10] = assay: Antibacterial activity against methicillin-resistant Staphylococcus aureus NCTC 10442 assessed as inhibition of growth visually by CLSI method; format: functional
Streptococcus pneumoniae = assay: Antibacterial activity against Streptococcus pneumoniae ATCC 49619 assessed as inhibition of growth visually by CLSI method; format: functional
Pseudomonas aeruginosa = assay: Antimicrobial activity against Pseudomonas aeruginosa ATCC 27853 assessed as growth inhibition incubated for 18 hrs; format: functional
Klebsiella pneumoniae = assay: Antimicrobial activity against multidrug-resistant Klebsiella pneumoniae ATCC 700603 assessed as growth inhibition incubated for 18 hrs; format: functional
Acinetobacter baumannii = assay: Antimicrobial activity against Acinetobacter baumannii ATCC 19606 assessed as growth inhibition incubated for 18 hrs; format: functional
Escherichia coli [11] = assay: Antimicrobial activity against Escherichia coli ATCC 25922 assessed as growth inhibition incubated for 18 hrs; format: functional
[12] = Hemolytic activity in human RBC assessed as hemolysis incubated for 1 hr by CO-ADD method; format: ADME, cell-based, Erythrocyte; conditions: red blood cells (erythrocytes)
[13] = Hemolytic activity in sheep RBC assessed as hemolysis at 5 microg/ml incubated for 2 hrs by CO-ADD method; format: ADME, cell-based, Ovis aries, Erythrocyte; conditions: red blood cells (erythrocytes), at 5 µg/mL, read-out: Activity
[14] = Hemolytic activity in sheep RBC assessed as hemolysis at 50 microg/ml incubated for 2 hrs; format: ADME, cell-based, Ovis aries, Erythrocyte; conditions: red blood cells (erythrocytes), at 50 µg/mL, read-out: Activity
[15] = Cytotoxicity against human HEK-293 cells assessed as maximal inhibition at <= 32 ug/ml incubated for 23 hrs by CO-ADD method; format: cell-based, HEK293; conditions: dose <=32 µg/ml, read-out: Imax
[16] = Hemolytic activity in human RBC assessed as maximal hemolysis at <= 32 ug/ml incubated for 1 hr by CO-ADD method; format: cell-based, Erythrocyte; conditions: red blood cells (erythrocytes), dose <=32 µg/ml, read-out: Activity

Compound	CC50 at 23 h [2]	MIC80 (Candida albicans)	MIC80 (Cryptococcus neoformans)	MIC (Staphylococcus aureus [3])	MIC (Enterococcus faecalis [4])	MIC (Enterococcus faecalis [5])	MIC (Escherichia coli [6])	MIC (Clostridioides difficile [7])	MIC (Clostridioides difficile [8])	MIC80 (Staphylococcus aureus [1])	MIC (Staphylococcus aureus [9])	MIC (Staphylococcus aureus [10])	MIC (Streptococcus pneumoniae)	MIC80 (Pseudomonas aeruginosa)	MIC80 (Klebsiella pneumoniae)	MIC80 (Acinetobacter baumannii)	MIC80 (Escherichia coli [11])	HC50 at 1 h [12]	hemolysis at 2 h, 5 microg/ml [13]	hemolysis at 2 h, 50 microg/ml [14]	also measured
CCCCCCCCCCCCCCCC1OC2C3CC(C2O1)C(C(=O)NCCNC(=N)N)C3C(=O)NCCNC(=N)N.Cl.Cl (stereo not given)	> 50 µg/mL	–	–	–	–	–	–	–	–	–	–	–	–	–	–	–	–	–	–	–	MIC (Staphylococcus aureus [1]): 1 µg/mL
OC(Cn1cncn1)(Cn1cncn1)c1ccc(F)cc1F [FLUCONAZOLE]	–	0.125 µg/mL (≈ 0.408 µM)	8 µg/mL (≈ 26.1 µM)	–	–	–	–	–	–	–	–	–	–	–	–	–	–	–	–	–	–
CN[C@H](CC(C)C)C(=O)N[C@H]1C(=O)N[C@@H](CC(N)=O)C(=O)N[C@H]2C(=O)N[C@H]3C(=O)N[C@H](C(=O)N[C@H](C(=O)O)c4cc(O)cc(O)c4-c4cc3ccc4O)[C@H](O)c3ccc(c(Cl)c3)Oc3cc2cc(c3O[C@@H]2O[C@H](CO)[C@@H](O)[C@H](O)[C@H]2O[C@H]2C[C@](C)(N)[C@H](O)[C@H](C)O2)Oc2ccc(cc2Cl)[C@H]1O [VANCOMYCIN]	–	–	–	8 µg/mL (≈ 5.52 µM)	2 µg/mL (≈ 1.38 µM)	> 8 µg/mL	> 8 µg/mL	1 µg/mL (≈ 0.69 µM)	0.5 µg/mL (≈ 0.345 µM)	1 µg/mL (≈ 0.69 µM)	–	–	–	–	–	–	–	–	–	–	–
CC(C)CCOc1cccc(-c2ccccc2OCc2cn(C[C@@H](CCCCN)NC(=O)[C@@H](CCCNC(=N)N)n3cc(CC4CCCCC4)nn3)nn2)c1.Cl.Cl	> 32 µg/mL	32 µg/mL	> 32 µg/mL	2 µg/mL	2 µg/mL	8 µg/mL	2 µg/mL	16 µg/mL	16 µg/mL	≤ 0.25 µg/mL	2 µg/mL	2 µg/mL	1 µg/mL	8 µg/mL	> 32 µg/mL	4 µg/mL	8 µg/mL	> 32 µg/mL	2.6%	72.1%	Emax at 23 h [15]: 28%; hemolysis at 1 h [16]: 38%
CC(C)CCOc1ccccc1-c1ccc(OCc2cn(C[C@@H](CCCCN)NC(=O)[C@@H](CCCNC(=N)N)n3cc(CC4CCCCC4)nn3)nn2)cc1.Cl.Cl	> 32 µg/mL	16 µg/mL	> 32 µg/mL	4 µg/mL	4 µg/mL	16 µg/mL	8 µg/mL	16 µg/mL	8 µg/mL	≤ 0.25 µg/mL	2 µg/mL	4 µg/mL	1 µg/mL	8 µg/mL	32 µg/mL	4 µg/mL	8 µg/mL	> 32 µg/mL	2%	66.4%	Emax at 23 h [15]: 40%; hemolysis at 1 h [16]: 82%
CC(C)CCOc1ccc(-c2ccc(OCc3cn(C[C@@H](CCCCN)NC(=O)[C@@H](CCCNC(=N)N)n4cc(CC5CCCCC5)nn4)nn3)cc2)cc1.Cl.Cl	> 32 µg/mL	1 µg/mL	> 32 µg/mL	4 µg/mL	8 µg/mL	16 µg/mL	32 µg/mL	16 µg/mL	8 µg/mL	≤ 0.25 µg/mL	4 µg/mL	4 µg/mL	2 µg/mL	8 µg/mL	32 µg/mL	32 µg/mL	8 µg/mL	9.8 µg/mL	1.4%	57.2%	Emax at 23 h [15]: 25%; hemolysis at 1 h [16]: 94%
CC/C(=C(\c1ccccc1)c1ccc(OCCN(C)C)cc1)c1ccccc1 [TAMOXIFEN]	9 µg/mL (≈ 24.2 µM)	–	–	–	–	–	–	–	–	–	–	–	–	–	–	–	–	–	–	–	–
CC(C)CCOc1cccc(-c2cccc(OCc3cn(C[C@@H](CCCCN)NC(=O)[C@@H](CCCNC(=N)N)n4cc(CC5CCCCC5)nn4)nn3)c2)c1.Cl.Cl	28.1 µg/mL	8 µg/mL	> 32 µg/mL	4 µg/mL	4 µg/mL	8 µg/mL	4 µg/mL	16 µg/mL	16 µg/mL	≤ 0.25 µg/mL	4 µg/mL	4 µg/mL	2 µg/mL	32 µg/mL	> 32 µg/mL	32 µg/mL	32 µg/mL	> 32 µg/mL	3.7%	76.7%	Emax at 23 h [15]: 55%; hemolysis at 1 h [16]: 94%
C[C@@H]1[C@H](O)[C@@H](C)/C=C/C=C/C=C/C=C/C=C/C=C/C=C/[C@H](O[C@@H]2O[C@H](C)[C@@H](O)[C@H](N)[C@@H]2O)C[C@@H]2O[C@](O)(C[C@@H](O)C[C@@H](O)[C@H](O)CC[C@@H](O)C[C@@H](O)CC(=O)O[C@H]1C)C[C@H](O)[C@H]2C(=O)O [AMPHOTERICIN B]	–	1.56 µg/mL (≈ 1.69 µM)	1.56 µg/mL (≈ 1.69 µM)	–	–	–	–	–	–	–	–	–	–	–	–	–	–	–	–	–	–
CC(C)CCOc1cccc(-c2ccc(OCc3cn(C[C@@H](CCCCN)NC(=O)[C@@H](CCCNC(=N)N)n4cc(CC5CCCCC5)nn4)nn3)cc2)c1.Cl.Cl	> 32 µg/mL	16 µg/mL	> 32 µg/mL	4 µg/mL	4 µg/mL	16 µg/mL	16 µg/mL	32 µg/mL	16 µg/mL	≤ 0.25 µg/mL	4 µg/mL	4 µg/mL	4 µg/mL	32 µg/mL	> 32 µg/mL	32 µg/mL	32 µg/mL	> 32 µg/mL	2.1%	40.8%	Emax at 23 h [15]: 43%; hemolysis at 1 h [16]: 88%
CC(C)CCOc1ccccc1-c1ccccc1OCc1cn(C[C@@H](CCCCN)NC(=O)[C@@H](CCCNC(=N)N)n2cc(CC3CCCCC3)nn2)nn1.Cl.Cl	> 32 µg/mL	32 µg/mL	> 32 µg/mL	4 µg/mL	4 µg/mL	8 µg/mL	4 µg/mL	16 µg/mL	8 µg/mL	≤ 0.25 µg/mL	2 µg/mL	2 µg/mL	1 µg/mL	16 µg/mL	32 µg/mL	16 µg/mL	8 µg/mL	> 32 µg/mL	2.1%	66.6%	Emax at 23 h [15]: 14%; hemolysis at 1 h [16]: 56%
CC(C)CCOc1ccccc1-c1cccc(OCc2cn(C[C@@H](CCCCN)NC(=O)[C@@H](CCCNC(=N)N)n3cc(CC4CCCCC4)nn3)nn2)c1.Cl.Cl	> 32 µg/mL	16 µg/mL	> 32 µg/mL	2 µg/mL	4 µg/mL	8 µg/mL	4 µg/mL	16 µg/mL	8 µg/mL	≤ 0.25 µg/mL	4 µg/mL	4 µg/mL	2 µg/mL	2 µg/mL	> 32 µg/mL	16 µg/mL	2 µg/mL	> 32 µg/mL	1.4%	38.2%	Emax at 23 h [15]: 36%; hemolysis at 1 h [16]: 81%
COLISTIN	–	–	–	–	–	–	1 µg/mL	–	–	–	–	–	–	–	–	–	–	–	–	–	MIC=>80 (Pseudomonas aeruginosa): 0.25 µg/mL; MIC=>80 (Klebsiella pneumoniae): 0.25 µg/mL; MIC=>80 (Acinetobacter baumannii): 0.25 µg/mL; MIC=>80 (Escherichia coli [11]): 0.125 µg/mL
CCCCCCCCCCCC(=O)N(CCCCCCNC(=O)[C@@H](N)CCCCN)CCCCCCNC(=O)[C@@H](N)CCCCN	–	–	–	–	–	–	3.1 µg/mL (≈ 4.74 µM)	–	–	–	–	–	–	–	–	–	–	860 µg/mL	–	–	MIC (Staphylococcus aureus [1]): 3.1 µg/mL (≈ 4.74 µM)
CC(C)(C)c1ccc(CC(N)C(=O)NC(CCCNC(=N)N)C(=O)Nc2cc(NC(=O)C(CCCNC(=N)N)NC(=O)C(N)Cc3ccc(C(C)(C)C)cc3)cc(C(N)=O)c2)cc1 (stereo not given)	–	–	–	–	–	–	–	–	–	–	3.9 µg/mL (≈ 4.48 µM)	–	–	–	–	–	–	> 100 µg/mL	–	–	–
CC(C)CCOc1ccc(-c2cccc(OCc3cn(C[C@@H](CCCCN)NC(=O)[C@@H](CCCNC(=N)N)n4cc(CC5CCCCC5)nn4)nn3)c2)cc1.Cl.Cl	> 32 µg/mL	8 µg/mL	> 32 µg/mL	2 µg/mL	4 µg/mL	8 µg/mL	32 µg/mL	16 µg/mL	16 µg/mL	≤ 0.25 µg/mL	4 µg/mL	8 µg/mL	2 µg/mL	16 µg/mL	32 µg/mL	32 µg/mL	8 µg/mL	> 32 µg/mL	2.3%	66.5%	Emax at 23 h [15]: 18%; hemolysis at 1 h [16]: 102%
